One experiment addresses CDK2/Cyclin E1 (Homo sapiens, UniProt P24941). Put plainly: CDK2/Cyclin E1 Biochemical Assay (TR-FRET), 0.060 mM ATP. Particulars: 0.15 μM Rb (Ser780)-biotin substrate, pH7.0, 60 min preincubation, 120 min reaction, room temperature. On the procedure: (§1) CDK2/Cyclin E1 and CDK1/Cyclin B1 Biochemical Assays
(§2) Compounds disclosed herein were tested for inhibition of CDK2/Cyclin E1 or CDK1/Cyclin B1 kinase in an assay based on the time-resolved fluorescence-resonance energy transfer (TR-FRET) methodology. The assay was carried out in 384-well low volume black plates in a reaction mixture containing CDK2/Cyclin E1 or CDK1/Cyclin B1, 0.060 mM ATP for CDK2/Cyclin E1 or 0.015 mM ATP for CDK1/Cyclin B1, 0.15 μM Rb (Ser780)-biotin substrate and 0-10 μM compound in buffer containing 50 mM HEPES pH7.0, 0.02% NaN3, 0.01% BSA, 0.1 mM Orthovanadate, 50 mM MgCl2, 1 mM DTT and 0.005% Tween-20. The kinase was incubated with compound for 60 minutes at room temperature and the reaction was initiated by the addition of ATP and Rb (Ser780)-biotin substrate. After reaction at room temperature for 120 minutes, an equal volume of stop/detection solution was added according to the manufacture's instruction (Cisbio Bioassays). The stop/detection solution contained Streptavidin-XL665 and Anti-pRb (Ser780) mAb-Eu Cryptate in Detection buffer (Cisbio Bioassays). Plates were incubated at room temperature for 60 minutes, and the TR-FRET signals (ex337 nm, em665 nm/620 nm) were recorded on a PHERAstar FSX plate reader (BMG Labtech). The inhibition percentage of CDK2/Cyclin E1 or CDK1/Cyclin B1 kinase activity in presence of increasing concentrations of compounds was calculated based on the ratio of fluorescence at 665 nm to that at 620 nm. The IC50 for each compound was derived from fitting the data to the four-parameter logistic equation by Dotmatics.

The next experiment deals with CDK1/Cyclin B1 (Homo sapiens, UniProt P06493). Kind of experiment: CDK1/Cyclin B1 Biochemical Assay (TR-FRET), 0.015 mM ATP. Particulars: 0.15 μM Rb (Ser780)-biotin substrate, pH7.0, 60 min preincubation, 120 min reaction, room temperature. On the procedure:
as §1, §2
For orientation: TR-FRET usually uses a lanthanide donor and a delayed reading to cut background.

Structures are written as SMILES.

The IC50 is the point on the concentration scale where inhibition reaches its midpoint. High values mean weaker potency in that assay, low ones greater potency in that assay.

Sequence of CDK1/Cyclin B1 (P06493 whole entry): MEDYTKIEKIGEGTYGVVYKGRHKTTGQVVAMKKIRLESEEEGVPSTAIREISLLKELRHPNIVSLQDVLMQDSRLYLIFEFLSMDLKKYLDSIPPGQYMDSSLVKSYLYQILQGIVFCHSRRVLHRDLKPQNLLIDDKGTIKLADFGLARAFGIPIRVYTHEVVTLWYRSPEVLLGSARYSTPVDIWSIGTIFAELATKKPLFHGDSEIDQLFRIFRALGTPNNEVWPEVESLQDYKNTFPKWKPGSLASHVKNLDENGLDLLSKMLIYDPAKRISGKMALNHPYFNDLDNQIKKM
Sequence of CDK1/Cyclin B1 (P14635 whole entry partner): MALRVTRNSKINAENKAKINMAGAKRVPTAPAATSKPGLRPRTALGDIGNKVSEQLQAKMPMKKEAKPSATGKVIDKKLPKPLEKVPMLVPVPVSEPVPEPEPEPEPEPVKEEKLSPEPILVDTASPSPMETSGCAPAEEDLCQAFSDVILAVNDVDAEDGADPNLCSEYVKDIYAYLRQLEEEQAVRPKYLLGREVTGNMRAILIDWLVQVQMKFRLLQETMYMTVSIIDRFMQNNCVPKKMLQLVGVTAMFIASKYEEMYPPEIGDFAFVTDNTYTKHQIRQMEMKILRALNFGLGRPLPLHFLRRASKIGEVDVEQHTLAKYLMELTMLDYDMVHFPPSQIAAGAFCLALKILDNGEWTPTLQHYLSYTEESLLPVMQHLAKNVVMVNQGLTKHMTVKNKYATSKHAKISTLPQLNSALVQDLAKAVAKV

Take `CCCNC(=O)O[C@H]1CC[C@@H](c2cc(Nc3ccc4c(c3Cl)CNS4(=O)=O)n[nH]2)C1` (racemic) [Example 39, cis-3-(3-((4-chloro-1,1-dioxido-2,3-dihydrobenzo[d]isothiazol-5-yl)amino)-1H-pyrazol-5-yl)cyclopentyl propylcarbamate]: the figures for the IC50 on CDK2/Cyclin E1 and at CDK1/Cyclin B1 were 0.015 µM and 0.374 µM, respectively.

Regarding `CC1(NC(=O)O[C@H]2CC[C@@H](c3cc(Nc4ccc5c(c4Cl)CNS5(=O)=O)n[nH]3)C2)CC1` (racemic) [Example 40, cis-3-(3-((4-chloro-1,1-dioxido-2,3-dihydrobenzo[d]isothiazol-5-yl)amino)-1H-pyrazol-5-yl)cyclopentyl(1-methylcyclopropyl)carbamate], the values for the IC50 at CDK2/Cyclin E1 and at CDK1/Cyclin B1 were 0.0023 µM and 0.154 µM, respectively.

On to `CC[C@H](C)NC(=O)O[C@H]1CC[C@@H](c2cc(Nc3ccc4c(c3F)CN(C3CC3)S4(=O)=O)n[nH]2)C1` (racemic) [Example 117, cis-3-(3-((2-cyclopropyl-4-fluoro-1,1-dioxido-2,3-dihydrobenzo[d]isothiazol-5-yl)amino)-1H-pyrazol-5-yl)cyclopentyl((S)-sec-butyl)carbamate], for which the IC50 at CDK2/Cyclin E1 stood at 0.0096 µM; against CDK1/Cyclin B1, 0.431 µM.

With `CCCNC(=O)O[C@H]1CC[C@@H](c2cc(Nc3ccc4c(c3F)CN(C3CC3)S4(=O)=O)n[nH]2)C1` (racemic) [Example 118, cis-3-(3-((2-cyclopropyl-4-fluoro-1,1-dioxido-2,3-dihydrobenzo[d]isothiazol-5-yl)amino)-1H-pyrazol-5-yl)cyclopentyl propylcarbamate], the IC50 against CDK2/Cyclin E1 was 0.0031 µM; at CDK1/Cyclin B1, 0.345 µM.

With `CC1(NC(=O)O[C@H]2CC[C@@H](c3cc(Nc4ccc5c(c4F)CN(C4CC4)S5(=O)=O)n[nH]3)C2)CC1` (racemic) [Example 119, cis-3-(3-((2-cyclopropyl-4-fluoro-1,1-dioxido-2,3-dihydrobenzo[d]isothiazol-5-yl)amino)-1H-pyrazol-5-yl)cyclopentyl(1-methylcyclopropyl)carbamate], the IC50 against CDK2/Cyclin E1 was determined as 0.0027 µM; against CDK1/Cyclin B1 it was 0.146 µM.

`CC1(NC(=O)O[C@H]2CC[C@@H](c3cc(Nc4ccc5c(c4F)CN(CCO)S5(=O)=O)n[nH]3)C2)CC1` (racemic) [Example 128, cis-3-(3-((4-fluoro-2-(2-hydroxyethyl)-1,1-dioxido-2,3-dihydrobenzo[d]isothiazol-5-yl)amino)-1H-pyrazol-5-yl)cyclopentyl(1-methylcyclopropyl)carbamate]: the IC50 against CDK2/Cyclin E1 is 0.0018 µM; on CDK1/Cyclin B1, 0.098 µM.

Turning to `[2H]C([2H])([2H])N1Cc2c(ccc(Nc3cc([C@H]4CC[C@@H](OC(=O)NC5(C)CC5)C4)[nH]n3)c2F)S1(=O)=O` (racemic) [Example 132, cis-3-(3-((4-fluoro-2-(methyl-d3)-1,1-dioxido-2,3-dihydrobenzo[d]isothiazol-5-yl)amino)-1H-pyrazol-5-yl)cyclopentyl(1-methylcyclopropyl)carbamate], the IC50 is 0.0016 µM on CDK2/Cyclin E1 and 0.104 µM at CDK1/Cyclin B1.

Take `O=C(NCCC(F)(F)F)O[C@H]1CC[C@@H](c2cc(Nc3ccc4c(c3F)CNS4(=O)=O)n[nH]2)C1` (racemic) [Example 154, cis-3-(3-((4-fluoro-1,1-dioxido-2,3-dihydrobenzo[d]isothiazol-5-yl)amino)-1H-pyrazol-5-yl)cyclopentyl(3,3,3-trifluoropropyl)carbamate]: the figures for the IC50 against CDK2/Cyclin E1 and against CDK1/Cyclin B1 were 0.0017 µM and 0.333 µM, respectively.

With `COCC1(NC(=O)O[C@H]2CC[C@@H](c3cc(Nc4ccc5c(c4F)CNS5(=O)=O)n[nH]3)C2)CC1` (racemic) [Example 158, cis-3-(3-((4-fluoro-1,1-dioxido-2,3-dihydrobenzo[d]isothiazol-5-yl)amino)-1H-pyrazol-5-yl)cyclopentyl(1-(methoxymethyl)cyclopropyl)carbamate], the IC50 amounted to 0.0031 µM against CDK2/Cyclin E1 and 0.123 µM against CDK1/Cyclin B1.

Take `CC1(NC(=O)O[C@H]2CC[C@@H](c3cc(Nc4ccc5c(c4F)CNS5(=O)=O)n[nH]3)C2)CCOC1` (mixture of isomers) [Example 162, cis-3-(3-((4-fluoro-1,1-dioxido-2,3-dihydrobenzo[d]isothiazol-5-yl)amino)-1H-pyrazol-5-yl)cyclopentyl(3-methyltetrahydrofuran-3-yl)carbamate]: the IC50 against CDK2/Cyclin E1 was 0.0024 µM; at CDK1/Cyclin B1 it was 0.163 µM.

Take `CC1(NC(=O)O[C@H]2CC[C@@H](c3cc(Nc4ccc5c(c4F)CNS5(=O)=O)n[nH]3)C2)COC1` (racemic) [Example 164, cis-3-(3-((4-fluoro-1,1-dioxido-2,3-dihydrobenzo[d]isothiazol-5-yl)amino)-1H-pyrazol-5-yl)cyclopentyl(3-methyloxetan-3-yl)carbamate]: the IC50 against CDK2/Cyclin E1 is 0.005 µM; at CDK1/Cyclin B1, 0.294 µM.

With `CN1c2ccc(Nc3cc([C@@H]4CC[C@H](OC(=O)NC5CCC5)C4)[nH]n3)cc2CS1(=O)=O` (racemic) [Example 227, cis-3-(3-((1-methyl-2,2-dioxido-1,3-dihydrobenzo[c]isothiazol-5-yl)amino)-1H-pyrazol-5-yl)cyclopentyl cyclobutylcarbamate], the figures for the IC50 at CDK2/Cyclin E1 and on CDK1/Cyclin B1 were 0.005 µM and 0.249 µM, respectively.

With `CC1(NC(=O)O[C@H]2CC[C@@H](c3cc(Nc4ccc5c(c4)CCS(=O)(=O)N5)n[nH]3)C2)CC1` (racemic) [Example 249, cis-3-(3-((2,2-dioxido-3,4-dihydro-1H-benzo[c][1,2]thiazin-6-yl)amino)-1H-pyrazol-5-yl)cyclopentyl(1-methylcyclopropyl)carbamate], the IC50 against CDK2/Cyclin E1 came to 0.0021 µM; against CDK1/Cyclin B1 it was 0.029 µM.

As for `CC(C)NC(=O)O[C@H]1CC[C@@H](c2cc(Nc3ccc4c(c3F)CS(=O)(=O)N4)n[nH]2)C1` (racemic) [Example 251, cis-3-(3-((4-fluoro-2,2-dioxido-1,3-dihydrobenzo[c]isothiazol-5-yl)amino)-1H-pyrazol-5-yl)cyclopentyl isopropylcarbamate], the IC50 at CDK2/Cyclin E1 came out at 0.0004 µM; at CDK1/Cyclin B1, 0.025 µM.

With `CC(C)NC(=O)O[C@H]1CC[C@@H](c2cc(Nc3ccc4c(c3F)CS(=O)(=O)N4CC(C)(C)O)n[nH]2)C1` (racemic) [Example 254, cis-3-(3-((4-fluoro-1-(2-hydroxy-2-methylpropyl)-2,2-dioxido-1,3-dihydrobenzo[c]isothiazol-5-yl)amino)-1H-pyrazol-5-yl)cyclopentyl isopropylcarbamate], the IC50 on CDK2/Cyclin E1 came to 0.01 µM; against CDK1/Cyclin B1 it was 0.249 µM.

`CCCNC(=O)O[C@H]1CC[C@@H](c2cc(Nc3ccc4c(c3F)CS(=O)(=O)N4C3COC3)n[nH]2)C1` (racemic) [Example 260, cis-3-(3-((4-fluoro-1-(oxetan-3-yl)-2,2-dioxido-1,3-dihydrobenzo[c]isothiazol-5-yl)amino)-1H-pyrazol-5-yl)cyclopentyl propylcarbamate]: the IC50 at CDK2/Cyclin E1 was 0.0032 µM; against CDK1/Cyclin B1, 0.11 µM.

Turning to `CC[C@H](C)NC(=O)O[C@H]1CC[C@@H](c2cc(Nc3ccc4c(c3F)CS(=O)(=O)N4C3COC3)n[nH]2)C1` (racemic) [Example 261, cis-3-(3-((4-fluoro-1-(oxetan-3-yl)-2,2-dioxido-1,3-dihydrobenzo[c]isothiazol-5-yl)amino)-1H-pyrazol-5-yl)cyclopentyl((S)-sec-butyl)carbamate], the IC50 stood at 0.0013 µM on CDK2/Cyclin E1 and 0.049 µM on CDK1/Cyclin B1.

As to `CC(C)NC(=O)O[C@H]1CC[C@@H](c2cc(Nc3ccc4c(c3)CNS4(=O)=O)n[nH]2)C1` (relative stereo) [Example 2, cis-3-(3-((1,1-dioxido-2,3-dihydrobenzo[d]isothiazol-5-yl)amino)-1H-pyrazol-5-yl)cyclopentyl isopropylcarbamate], the IC50 against CDK2/Cyclin E1 came to 0.0009 µM; on CDK1/Cyclin B1, 0.0361 µM.

With `CC(C)NC(=O)O[C@H]1CC[C@@H](c2cc(Nc3ccc4c(c3)S(=O)(=O)NC4)n[nH]2)C1` (relative stereo) [Example 3, cis-3-(3-((1,1-dioxido-2,3-dihydrobenzo[d]isothiazol-6-yl)amino)-1H-pyrazol-5-yl)cyclopentyl isopropylcarbamate], the IC50 against CDK2/Cyclin E1 worked out at 0.0012 µM; against CDK1/Cyclin B1 it was 0.029 µM.

Turning to `CC(C)NC(=O)O[C@H]1CC[C@@H](c2cc(Nc3ccc4c(c3)S(=O)(=O)NC4(C)C)n[nH]2)C1` (relative stereo) [Example 4, cis-3-(5-((3,3-dimethyl-1,1-dioxido-2,3-dihydrobenzo[d]isothiazol-6-yl)amino)-1H-pyrazol-3-yl)cyclopentyl isopropylcarbamate], the figures for the concentration for half-maximal inhibition (IC50) against CDK2/Cyclin E1 and at CDK1/Cyclin B1 were 0.0086 µM and 0.184 µM, respectively.

`CC(C)NC(=O)O[C@H]1CC[C@@H](c2cc(Nc3ccc4c(c3F)CS(=O)(=O)C4)n[nH]2)C1` (relative stereo) [Example 317, cis-3-(3-((4-fluoro-2,2-dioxido-1,3-dihydrobenzo[c]thiophen-5-yl)amino)-1H-pyrazol-5-yl)cyclopentyl isopropylcarbamate] returned a concentration for half-maximal inhibition (IC50) against CDK1/Cyclin B1 of 0.018 µM. In other words, the double-digit nanomolar range.

(Values after US20260297080A1, “BICYCLIC COMPOUNDS AS CDK INHIBITORS” (BeOne Medicines I GmbH, priority 2022, published 2026).)
